Paper PMC8329121 (Journal of Neuroimmune Pharmacology, 2021)
Substitutions are numbered along the chain they refer to.

What was measured:
[1] = target: T1, E2C-I159A/H547A (C90A/C306A/I159A/H547A) (Homo sapiens, UniProt Q01959, C306A/C90A/H547A/I159A); experiment: MTSET assay, [3H]DA uptake in HEK293 cells; type: cell-based; conditions: 1 mM MTSET
T1 construct: expressed in transfected cells; host or cells: HEK293 cells, transient, pcDNA3.1+
T1 sequence (Q01959 1-620 C90A/I159A/C306A/H547A): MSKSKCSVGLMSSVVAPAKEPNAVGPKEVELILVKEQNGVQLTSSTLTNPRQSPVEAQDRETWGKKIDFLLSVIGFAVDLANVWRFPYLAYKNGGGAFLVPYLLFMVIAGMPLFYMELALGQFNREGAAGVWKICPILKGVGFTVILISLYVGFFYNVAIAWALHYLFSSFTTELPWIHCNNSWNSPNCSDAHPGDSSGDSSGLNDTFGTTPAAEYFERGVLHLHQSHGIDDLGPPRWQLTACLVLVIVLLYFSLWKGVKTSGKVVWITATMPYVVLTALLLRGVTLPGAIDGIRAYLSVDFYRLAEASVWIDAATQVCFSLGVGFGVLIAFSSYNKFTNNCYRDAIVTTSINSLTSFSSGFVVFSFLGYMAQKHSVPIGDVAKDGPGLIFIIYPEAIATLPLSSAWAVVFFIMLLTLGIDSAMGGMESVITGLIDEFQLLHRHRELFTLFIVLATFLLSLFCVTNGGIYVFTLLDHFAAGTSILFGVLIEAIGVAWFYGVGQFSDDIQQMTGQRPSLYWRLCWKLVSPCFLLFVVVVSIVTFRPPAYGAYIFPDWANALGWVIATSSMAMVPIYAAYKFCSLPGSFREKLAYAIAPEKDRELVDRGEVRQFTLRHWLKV
Text: (§1) All mutants on hDAT were generated based on the predictions made using our computational model, as described previously using site-directed mutagenesis based on the wild-type hDAT (WT hDAT) sequence (NCBI, cDNA clone MGC: 164,608 IMAGE: 40,146,999) (Quizon et al. [2016]). The combination of hDAT mutations on Asp206 and His547 (Aspartic acid 206 to leucine and histidine 547 to alanine, D206L/H547A) were predicted to eliminate two hydrogen bonds between Tat and hDAT. In addition, the combination of mutations on Tyr88, Asp206, and His547 (tyrosine88 to phenylalanine and aspartic acid 206 to leucine and histidine 547 to alanine, Y88F/D206L/H547A) were predicted to eliminate three hydrogen bonds from the Tat-hDAT complex. Two extracellular cysteine90 and cysteine306 residues on WT hDAT were mutated to alanine as E2C hDAT (C90A/C306A hDAT), rendering the E2C hDAT MTSET-insensitive background (Pedersen et al. [2014]). A triple mutation of the two cysteine90 and 306 residues to alanine and […] to cysteine on WT hDAT was generated as E2C-I159C hDAT (C90A/C306A/I159C) for MTSET-sensitive construct. A combination of C90A/C306A/H547A was generated as E2C/H547A hDAT for MTSET-insensitive control for H547A. To determine whether H547A-enhanced DA transport is mediated by changing transporter conformation, two combinations of C90A/C306A/I159C/H547A and C90A/C306A/I159A/H547A were generated as E2C-I159C/H547A and E2C-I159A/H547A for positive and negative controls for MTSET sensitive background, respectively. Synthetic cDNA encoding hDAT subcloned into pcDNA3.1+ (provided by Dr. Haley E Melikian, University of Massachusetts) was used as a template to generate mutants using site-directed mutagenesis performed by GENEWIZ (South Plainfield, NJ). DNA sequencing was also performed by GENEWIZ to confirm the sequences of the mutant constructs. Plasmid DNA were propagated and purified using the Qiagen Hi-speed maxi prep plasmid DNA isolation kit (Qiagen, Valencia, CA, USA).
(§2) This assay was performed based on the previous report with minor modifications (Loland et al. [2004], [2008]). First, we generated five WT hDAT based plasmid construct for MTSET-insensitive or sensitive background as we described above. HEK293 cells were grown in poly-d-lysine coated plates at a density of 1 × 10^5 cells/cm^2 were transfected with different E2C- associated hDAT background constructs: E2C hDAT, E2C-I159C hDAT, E2C/H547A hDAT, E2C-I159C/H547A or E2C-I159A/H547A. Twenty-four hours after the transfection, cells were washed twice with 1× KRH buffer, and preincubated with or without the presence of 10 µM nomifensine (for non-specific uptake) and MTSET for 10 min at room temperature. MTSET at 1 mM final concentration was chosen based on a pilot study on optimizing MTSET concentrations (0.1, 0.5 or 1.0 mM). […] Because MTSET is easily hydrolyzed in solution, the amount needed for a 10 × stock was weighed out and dissolved in 1 × KRH buffer just right before adding to the assigned wells, for a 10-fold dilution (final concentration of 1 mM in final volume of 250 µl). […] Cells were immediately washed twice with ice-cold 1 × KRH buffer to terminate the reaction and were lysed rapidly with the addition of 1 % SDS. Cell lysates were collected after incubation for 1 h at room temperature and radioactivity was determined the next day.

[2] = target: T2, E2C-I159C hDAT (C90A/C306A/I159C) (Homo sapiens, UniProt Q01959, C306A/C90A/I159C); experiment: MTSET assay, [3H]DA uptake in HEK293 cells; type: cell-based
T2 construct: expressed in transfected cells; host or cells: HEK293 cells, transient, pcDNA3.1+
T2 sequence (Q01959 1-620 C90A/I159C/C306A): T1 sequence (Q01959 1-620 C90A/I159A/C306A/H547A) with A159C, A547H
Text: as §1, §2

**Q.** How did the “inhibition of DA uptake relative to E2C” value ([1]; Fig. 8b) turn out when `C[N+](C)(C)CCSS(C)(=O)=O` [MTSET, [2-(trimethylammonium)ethyl]-methanethiosulfonate] was run?
**A.** Its value is 31%.

**Q.** And the “[3H]DA uptake in the presence of MTSET” value ([1]; HEK293, Fig. 8b)?
**A.** The value was 59.7 ± 5.7.

**Q.** And the “inhibition of [3H]DA uptake relative to no MTSET addition” value ([2]; 1 mM MTSET, 10 min, HEK293, pilot study Fig. 8a)?
**A.** The value was 55%.

**Q.** And the “[3H]DA uptake in the presence of MTSET” value ([2]; 1 mM MTSET, HEK293, Fig. 8b)?
**A.** Its value is 46.0 ± 6.0.

**Q.** And the “effect on [3H]DA uptake” value ([2]; MTSET 0.1, 0.5, 1.0 mM, pilot study Fig. 8a)?
**A.** The value was “concentration-dependently inhibited”.
